According to patent US20230338360A1, “Method of Inhibiting Constitutively Active Phosphorylated FLT3 Kinase” (Arog Pharmaceuticals, Inc., priority 2012, published 2023):
pIC50, pKd: −log10 of the molar value. Read-outs that look alike come from different tables or passages of the source.

What was measured:
[1] = system: primary AML patient blasts with FLT3 ITD and FLT3 D835Y mutation; conditions: blasts incubated 3 days; patient relapsed after AC220; cited from earlier work
[2] = system: FLT3 ITD expressing Molm 14 cells; conditions: cited from earlier work; for Percent Apoptosis: Molm 14
FLT3-ITD MV411 cells = conditions: crenolanib 0.1 uM for 5 minutes and 2 hours, […] radiolabeled cytarabine; cited from earlier work
[3] = system: other kinases (VEGFR-2, FGFR-2, TIE-2, VEGFR, FGFR, EGFR, erbB2, src, Abl, Raf); assay: Selectivity relative to other kinases; type: biochemical; conditions: at clinically achievable concentrations, e.g. VEGFR
Src = Src (Homo sapiens, UniProt P12931); assay: Inhibition of other RTKs (IC50); type: biochemical
VEGFR-2 = VEGFR-2 (Homo sapiens, UniProt P35968); assay: Inhibition of other RTKs (IC50); type: biochemical
MV-411 FLT3 ITD cells = conditions: combined with cytarabine in vitro; cited from earlier work
[4] = system: luciferase-expressing MV-411 cells; conditions: 15 mg/kg intraperitoneally, male NSG mice, twice daily 2 days then once daily 2 days; p<0.01; cited from earlier work
erbB2 = erbB2 (Homo sapiens, UniProt P04626); assay: Inhibition of other RTKs (IC50); type: biochemical
[5] = target: ABL1(T315I) nonphosphorylated (Homo sapiens, UniProt P00519, T315I)
[6] = system: primary AML patient blasts with FLT3 D835 mutation; conditions: MTT assay, 3 day exposure; cited from earlier work
[7] = system: primary AML patient blast samples harboring the FLT3 ITD mutation; conditions: samples from five patients, increasing concentrations, MTT; cited from earlier work
Ba/F3 D835Y = conditions: text: viability, read-out: IC50 pFLT3; cited from earlier work
[8] = target: wild type FLT3 receptor in HL60 (Homo sapiens, UniProt P36888); conditions: cited from earlier work
Ba/F3 D835Y/ITD = conditions: text: viability, read-out: IC50 pFLT3; cited from earlier work
TIE-2 = TIE-2 (Homo sapiens, UniProt Q02763); assay: Inhibition of other RTKs (IC50); type: biochemical
FGFR-2 = FGFR-2 (Homo sapiens, UniProt P21802); assay: Inhibition of other RTKs (IC50); type: biochemical
ABL1-nonphosphorylated = ABL1-nonphosphorylated (Homo sapiens, UniProt P00519)
ABL1-phosphorylated = ABL1-phosphorylated (Homo sapiens, UniProt P00519)
Ba/F3 D835N = conditions: text: viability, read-out: IC50 pFLT3; cited from earlier work
EGFR = EGFR (Homo sapiens, UniProt P00533); assay: Inhibition of other RTKs (IC50); type: biochemical
[9] = target: ABL1(T315I) phosphorylated (Homo sapiens, UniProt P00519, T315I)

Sequence of Src (P12931 whole entry, species assumed): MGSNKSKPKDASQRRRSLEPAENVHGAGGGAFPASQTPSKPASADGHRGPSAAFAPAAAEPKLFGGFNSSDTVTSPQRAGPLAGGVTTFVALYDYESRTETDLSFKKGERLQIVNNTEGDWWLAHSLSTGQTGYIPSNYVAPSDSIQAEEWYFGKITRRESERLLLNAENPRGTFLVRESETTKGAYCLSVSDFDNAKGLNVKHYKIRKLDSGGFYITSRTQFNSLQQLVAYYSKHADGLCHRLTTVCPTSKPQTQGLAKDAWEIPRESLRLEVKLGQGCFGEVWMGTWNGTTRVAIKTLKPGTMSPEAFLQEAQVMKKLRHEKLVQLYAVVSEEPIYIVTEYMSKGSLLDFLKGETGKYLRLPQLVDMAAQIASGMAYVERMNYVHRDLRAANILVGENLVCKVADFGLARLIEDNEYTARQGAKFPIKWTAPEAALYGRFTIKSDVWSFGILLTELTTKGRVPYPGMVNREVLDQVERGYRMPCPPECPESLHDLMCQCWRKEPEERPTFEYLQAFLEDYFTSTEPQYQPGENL
Sequence of TIE-2 (Q02763 23-1124, species assumed): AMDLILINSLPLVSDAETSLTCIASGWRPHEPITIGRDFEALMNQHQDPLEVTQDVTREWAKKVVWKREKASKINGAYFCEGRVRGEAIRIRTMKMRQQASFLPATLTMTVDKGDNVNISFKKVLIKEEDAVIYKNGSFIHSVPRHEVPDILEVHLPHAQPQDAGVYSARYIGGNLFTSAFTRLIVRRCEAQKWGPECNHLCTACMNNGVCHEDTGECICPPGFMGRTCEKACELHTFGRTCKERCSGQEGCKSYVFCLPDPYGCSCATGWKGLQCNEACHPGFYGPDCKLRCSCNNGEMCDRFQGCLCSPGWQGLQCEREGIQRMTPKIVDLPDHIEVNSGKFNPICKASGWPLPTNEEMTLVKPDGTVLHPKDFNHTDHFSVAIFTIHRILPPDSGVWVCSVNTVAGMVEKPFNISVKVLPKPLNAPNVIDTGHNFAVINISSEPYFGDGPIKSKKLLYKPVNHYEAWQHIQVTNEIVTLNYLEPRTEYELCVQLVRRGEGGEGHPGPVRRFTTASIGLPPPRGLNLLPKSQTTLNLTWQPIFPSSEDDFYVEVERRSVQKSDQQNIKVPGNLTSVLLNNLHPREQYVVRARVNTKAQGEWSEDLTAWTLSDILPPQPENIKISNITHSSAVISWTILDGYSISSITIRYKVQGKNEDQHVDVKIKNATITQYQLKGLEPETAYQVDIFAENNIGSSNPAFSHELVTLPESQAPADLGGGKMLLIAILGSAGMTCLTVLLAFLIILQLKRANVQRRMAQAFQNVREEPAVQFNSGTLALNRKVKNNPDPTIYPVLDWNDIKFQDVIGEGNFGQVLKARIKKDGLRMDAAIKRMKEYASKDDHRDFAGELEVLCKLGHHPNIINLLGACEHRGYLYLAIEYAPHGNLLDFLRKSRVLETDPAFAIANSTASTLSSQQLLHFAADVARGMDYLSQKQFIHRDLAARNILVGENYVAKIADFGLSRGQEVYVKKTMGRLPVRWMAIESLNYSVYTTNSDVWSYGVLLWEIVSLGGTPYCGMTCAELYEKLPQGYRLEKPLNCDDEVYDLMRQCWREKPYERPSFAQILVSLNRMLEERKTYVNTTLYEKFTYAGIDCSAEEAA
Sequence of wild type FLT3 receptor in HL60 (P36888 27-993): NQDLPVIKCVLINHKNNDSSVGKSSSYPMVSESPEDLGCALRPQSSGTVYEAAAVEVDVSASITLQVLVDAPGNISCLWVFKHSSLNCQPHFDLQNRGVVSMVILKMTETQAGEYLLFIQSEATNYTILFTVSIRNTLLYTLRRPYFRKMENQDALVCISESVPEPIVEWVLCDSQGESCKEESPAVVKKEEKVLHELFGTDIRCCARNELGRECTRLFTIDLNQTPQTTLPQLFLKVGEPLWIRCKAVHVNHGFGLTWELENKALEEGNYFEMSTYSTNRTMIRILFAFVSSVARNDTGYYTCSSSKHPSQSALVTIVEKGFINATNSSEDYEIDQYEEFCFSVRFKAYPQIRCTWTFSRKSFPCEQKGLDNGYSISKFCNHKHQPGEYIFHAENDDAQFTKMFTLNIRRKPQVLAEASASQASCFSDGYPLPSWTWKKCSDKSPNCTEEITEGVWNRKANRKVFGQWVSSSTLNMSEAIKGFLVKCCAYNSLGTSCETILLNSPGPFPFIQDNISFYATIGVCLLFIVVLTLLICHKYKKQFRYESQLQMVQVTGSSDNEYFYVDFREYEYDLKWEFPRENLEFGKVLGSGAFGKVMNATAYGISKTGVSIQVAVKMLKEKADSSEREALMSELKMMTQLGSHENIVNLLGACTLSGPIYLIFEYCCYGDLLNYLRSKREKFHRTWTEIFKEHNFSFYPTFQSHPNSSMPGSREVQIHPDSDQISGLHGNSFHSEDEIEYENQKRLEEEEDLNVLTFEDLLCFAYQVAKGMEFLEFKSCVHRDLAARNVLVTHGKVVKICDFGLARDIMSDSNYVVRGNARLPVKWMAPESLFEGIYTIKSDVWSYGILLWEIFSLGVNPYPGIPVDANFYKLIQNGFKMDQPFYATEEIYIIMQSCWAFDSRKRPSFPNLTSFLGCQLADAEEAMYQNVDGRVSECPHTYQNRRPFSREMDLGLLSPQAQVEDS
Sequence of FGFR-2 (P21802 22-821, species assumed): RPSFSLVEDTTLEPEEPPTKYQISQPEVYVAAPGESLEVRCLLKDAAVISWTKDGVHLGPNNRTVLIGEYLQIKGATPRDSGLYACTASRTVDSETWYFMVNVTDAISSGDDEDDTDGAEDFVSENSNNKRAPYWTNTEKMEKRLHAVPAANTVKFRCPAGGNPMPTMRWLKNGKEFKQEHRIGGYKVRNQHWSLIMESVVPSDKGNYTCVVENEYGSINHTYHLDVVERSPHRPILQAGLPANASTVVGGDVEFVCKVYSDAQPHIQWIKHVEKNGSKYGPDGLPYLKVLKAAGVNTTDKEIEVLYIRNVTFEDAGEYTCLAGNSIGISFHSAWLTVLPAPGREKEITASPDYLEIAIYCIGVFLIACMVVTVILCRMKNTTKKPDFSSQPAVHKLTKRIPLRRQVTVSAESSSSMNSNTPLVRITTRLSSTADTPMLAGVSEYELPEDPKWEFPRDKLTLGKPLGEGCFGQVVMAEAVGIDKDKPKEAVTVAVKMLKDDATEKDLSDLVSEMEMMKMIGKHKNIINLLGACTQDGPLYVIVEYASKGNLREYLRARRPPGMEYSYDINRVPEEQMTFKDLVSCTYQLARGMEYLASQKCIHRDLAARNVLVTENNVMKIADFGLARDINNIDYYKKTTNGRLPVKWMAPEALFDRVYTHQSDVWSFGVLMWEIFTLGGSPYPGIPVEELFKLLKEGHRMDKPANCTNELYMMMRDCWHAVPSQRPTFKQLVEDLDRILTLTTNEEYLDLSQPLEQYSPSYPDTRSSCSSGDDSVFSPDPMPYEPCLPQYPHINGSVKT
Sequence of erbB2 (P04626 23-1255, species assumed): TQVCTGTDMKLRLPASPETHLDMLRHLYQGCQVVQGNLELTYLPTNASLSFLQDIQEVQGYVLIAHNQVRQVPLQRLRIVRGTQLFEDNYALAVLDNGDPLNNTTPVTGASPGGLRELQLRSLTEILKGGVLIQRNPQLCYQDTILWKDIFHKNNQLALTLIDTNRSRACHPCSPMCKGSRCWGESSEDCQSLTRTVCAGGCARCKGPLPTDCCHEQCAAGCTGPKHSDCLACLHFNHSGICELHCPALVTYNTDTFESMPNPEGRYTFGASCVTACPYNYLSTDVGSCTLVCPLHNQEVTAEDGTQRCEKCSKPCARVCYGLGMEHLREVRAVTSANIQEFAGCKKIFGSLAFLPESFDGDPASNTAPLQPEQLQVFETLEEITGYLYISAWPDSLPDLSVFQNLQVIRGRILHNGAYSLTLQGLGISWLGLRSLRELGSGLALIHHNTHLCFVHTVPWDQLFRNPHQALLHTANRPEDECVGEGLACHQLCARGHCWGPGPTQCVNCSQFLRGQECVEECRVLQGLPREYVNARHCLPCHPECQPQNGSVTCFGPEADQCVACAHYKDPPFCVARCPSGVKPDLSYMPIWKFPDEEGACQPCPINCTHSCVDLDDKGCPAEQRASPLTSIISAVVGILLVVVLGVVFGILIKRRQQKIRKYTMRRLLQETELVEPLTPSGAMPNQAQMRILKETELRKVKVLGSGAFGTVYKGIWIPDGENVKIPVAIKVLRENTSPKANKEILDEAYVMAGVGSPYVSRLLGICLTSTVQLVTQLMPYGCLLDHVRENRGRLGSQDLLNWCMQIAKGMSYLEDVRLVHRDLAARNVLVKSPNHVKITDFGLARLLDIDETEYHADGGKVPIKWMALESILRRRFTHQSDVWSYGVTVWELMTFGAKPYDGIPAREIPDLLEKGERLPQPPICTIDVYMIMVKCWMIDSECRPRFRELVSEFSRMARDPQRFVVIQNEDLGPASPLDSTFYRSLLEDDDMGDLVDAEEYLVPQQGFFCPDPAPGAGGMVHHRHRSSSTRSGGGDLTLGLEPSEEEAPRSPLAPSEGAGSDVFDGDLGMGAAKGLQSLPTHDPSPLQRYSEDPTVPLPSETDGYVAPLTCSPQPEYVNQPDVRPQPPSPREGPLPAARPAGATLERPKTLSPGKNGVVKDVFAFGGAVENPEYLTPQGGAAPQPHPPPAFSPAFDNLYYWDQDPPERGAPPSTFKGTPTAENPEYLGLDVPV

CNC(=O)c1cc(Oc2ccc(NC(=O)Nc3ccc(Cl)c(C(F)(F)F)c3)cc2)ccn1 [Sorafenib, reference compound]
cytotoxic effect [1]: ineffective
Percent Apoptosis ([2]; compound concentration 20 nM): 13.07%
Percent Apoptosis ([2]; compound concentration 50 nM): 30.21%
Percent Apoptosis ([2]; compound concentration 100 nM): 44.09%

CC1(COc2ccc3c(c2)ncn3-c2ccc3cccc(N4CCC(N)CC4)c3n2)COC1 [Crenolanib Besylate]
cytarabine accumulation (FLT3-ITD MV411 cells): does not decrease cytarabine accumulation
inhibition of other known RTKs or serine/threonine kinases [3]: does not inhibit
pIC50 (Src): 5.30
pIC50 (VEGFR-2): 6.56
anti-leukemic effect of combination with cytarabine (MV-411 FLT3 ITD cells): Synergistic in vitro anti-leukemic effects
MV-411-luciferase bone marrow infiltration compared to vehicle [4]: siginificantly suppressed
pIC50 (erbB2): < 5.00
pKd [5]: 4.92
cytotoxic response compared with sorafenib [6]: greater cytotoxic response
cytotoxicity [7]: Cytotoxicity was observed in a dose dependent fashion
pIC50 (Ba/F3 D835Y): 8.20
phosphorylation inhibition of wild type FLT3 receptor [8]: increased phosphorylation inhibition in a dose dependent fashion
pIC50 (Ba/F3 D835Y/ITD): 7.69
cytotoxic effect [1]: induced a cytotoxic effect
Percent Apoptosis ([2]; compound concentration 20 nM): 32.79%
Percent Apoptosis ([2]; compound concentration 50 nM): 44.99%
Percent Apoptosis ([2]; compound concentration 100 nM): 51.17%
cytotoxic response of Molm 14 cells compared to sorafenib ([2]; concentrations 20 nM to 100 nM): significantly higher as compared to sorafenib
pIC50 (TIE-2): < 5.29
pIC50 (FGFR-2): < 5.29
pKd (ABL1-nonphosphorylated): 6.22
pKd (ABL1-phosphorylated): 7.06
pIC50 (Ba/F3 D835N): 8.41
pIC50 (EGFR): < 5.00
pKd [9]: 6.12
